Here are results for nine molecules from PubChem BioAssay (NCI).

Common to all, as to assay: growth of human tumour cells (NCI), 48 h
The test system of experiment [1] is MOLT-4 leukemia.
Experiment [2] concerns SNB-75 CNS.
The test system of experiment [3] is TK-10 renal.
In experiment [4] the test system is SF-295 CNS.
For experiment [5], the system named is SF-268 CNS.
Experiment [6] relates to UACC-62 melanoma.
Experiment [7] concerns SK-MEL-5 melanoma.
Experiment [8] has as its system A549 NSCLC.
Experiment [9] has as its system SK-OV-3 ovarian.
Experiment [10] relates to OVCAR-3 ovarian.

The structures appear in SMILES notation.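 1) Cells in 96-well plates. 2) Compound, 48 h, 5 concentrations. 3) Linear interpolation between surrounding doses. 4) Unreached endpoint = highest concentration. GI50 is the concentration that inhibits growth by half. The concentration for full growth arrest is given as TGI.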 Where only a bound is given, the exact number is not on record here.

As for `Cc1nc2sc(C(=O)Nc3ccccc3)c(N)c2cc1C(=O)/C=C/c1ccccc1`, the GI50 in experiment [1] is 2.91 µM; in experiment [2], 2.18 µM; in experiment [3], 2.3 µM; in [4], 2.77 µM; in experiment [5], 2.94 µM; in experiment [6] it was 1.64 µM. For the same molecule, the GI50 in experiment [7] is 2.27 µM; in experiment [8], 2.08 µM; in experiment [9] it was 4.03 µM; in [10], 1.9 µM. Also, the TGI in [1] turned out to be 76.1 µM; in experiment [2], 6.12 µM; in experiment [3], 6.39 µM; in experiment [4], 7.56 µM; in experiment [5], 9.93 µM; in experiment [6] it was 3.45 µM. The TGI came out at 5.98 µM in experiment [7], 4.91 µM in experiment [8], 23.3 µM in experiment [9] and 4.14 µM in experiment [10].
In the case of `CC(=O)[O-].CC(=O)[O-].[NH2-].[Pt+2].c1ccc2cnccc2c1`, the GI50 was 1.4 µM in [1]; more than 100 µM in experiment [2]; 15.5 µM in experiment [3]; more than 100 µM in experiment [4]; 18.8 µM in experiment [5]; 30.3 µM in experiment [6]. Also, the GI50 in experiment [7] was 38.4 µM; in [8], 0.147 µM; in experiment [9], more than 100 µM; in [10] it was 42.2 µM. Moreover, the TGI in experiment [1] is 27.3 µM; in [2] it was more than 100 µM; in [3], 90.7 µM; in experiment [4] it was more than 100 µM; in experiment [5] it was more than 100 µM; in experiment [6] it was more than 100 µM. The TGI is more than 100 µM in experiment [7], 15.7 µM in experiment [8], more than 100 µM in [9] and more than 100 µM in [10].
On to `Nc1cc(N)c(N)cc1N`, for which the GI50 in [1] is 3.14 µM; in experiment [2], 1.47 µM; in experiment [3], 3.68 µM; in experiment [4], 1.7 µM; in [5] it was 3.06 µM; in experiment [6] it was 1.55 µM. Further, the GI50 in [7] is 0.736 µM; in experiment [8], 2.06 µM; in experiment [9] it was 7.12 µM; in experiment [10], 1.97 µM. In addition, the TGI in experiment [1] came to 28.6 µM; in experiment [2] it was 2.87 µM; in experiment [3], 14.5 µM; in [4], 3.31 µM; in experiment [5], 12.2 µM; in [6], 2.97 µM. Besides, the TGI in experiment [7] is 2.02 µM; in experiment [8], 4.51 µM; in experiment [9] it was 42.2 µM; in [10], 4.46 µM.
As to `O=NNc1nc(-c2cccnc2)nc2ccccc12`, the TGI in experiment [1], in experiment [2], in [3], in [4], in experiment [5] and in experiment [6] was more than 100 µM in each case. Besides, the TGI in [7], in experiment [8], in experiment [9] and in [10] was more than 100 µM throughout.
For `N[C@H](C(=O)O)[C@H](Cl)CC(=O)O`, the TGI in experiment [1], in [2], in experiment [3], in experiment [4], in experiment [5] and in experiment [6] was more than 100 µM in each case. The TGI in experiment [7], in experiment [8], in experiment [9] and in [10] was more than 100 µM in each case.
Consider `COc1ccc2c3c(c(=O)n(C)c2c1OC)C=CC(C)(C)O3`, for which the TGI in experiment [1] is 54.7 µM; in experiment [2], 48.2 µM; in experiment [3] it was more than 100 µM; in [4], more than 100 µM; in [5], more than 100 µM; in [6], more than 100 µM. The TGI in experiment [7] was 30.1 µM; in [8], more than 100 µM; in experiment [9] it was more than 100 µM; in [10], more than 100 µM.
In the case of `O=C(O)c1cc(=O)c2[nH]c3ccccc3c2s1`, the TGI in experiment [1], in experiment [2], in [3], in experiment [4], in experiment [5] and in [6] was more than 100 µM each time. Besides, the TGI in [7], in experiment [8], in experiment [9] and in [10] was more than 100 µM each time.
Regarding `C[C@@H]1COCCN1c1cc(C2(S(C)(=N)=O)CC2)nc(-c2ccnc3[nH]ccc23)n1` (stereo not given in full), the GI50 is 2.35 µM in [1]; 1.64 µM in experiment [2]; 8.51 µM in experiment [3]; 1.66 µM in experiment [4]; 6.17 µM in [5]; 2.01 µM in experiment [6]. Besides, the GI50 is 4.17 µM in experiment [7], 3.35 µM in experiment [8], 5.27 µM in experiment [9] and 5.76 µM in [10]. Moreover, the TGI stood at 49.4 µM in [1]; 12.8 µM in experiment [2]; 51 µM in experiment [3]; 19.8 µM in experiment [4]; 39.6 µM in experiment [5]; 11 µM in experiment [6]. Also, the TGI in experiment [7] is 35 µM; in experiment [8], 35.2 µM; in experiment [9], 56.4 µM; in experiment [10], 38.9 µM.
On to `C[C@H]1[C@H](C)CC[C@]2(C(=O)O)CC[C@]3(C)C(=CC[C@@H]4[C@@]5(C)C/C(=C/c6cccnc6)[C@H](O)C(C)(C)[C@@H]5CC[C@]43C)[C@H]12`, for which the GI50 was 8.74 µM in [1]; 28.6 µM in experiment [2]; 28.4 µM in experiment [3]; 4.83 µM in [4]; 24.3 µM in experiment [5]; 11.7 µM in experiment [6]. The GI50 was 13.7 µM in experiment [7], 5.27 µM in [8], 19.9 µM in [9] and 13.5 µM in [10]. Moreover, the TGI in experiment [1] is 58.2 µM; in experiment [2], more than 100 µM; in [3], more than 100 µM; in experiment [4], 25.8 µM; in [5], more than 100 µM; in [6] it was 35 µM. Besides, the TGI in [7] is 35.7 µM; in experiment [8], 62.4 µM; in experiment [9], more than 100 µM; in [10] it was 31.1 µM.
